Results: patent US20030161902A1, “Increased lifespan formulation” (priority 2001, published 2003)

What was measured:
[1] = Antioxidant activity of mouse food and pine bark extract (Table 2); format: biochemical
Protocol: The experimental mice were fed ad libitum on Archer's mouse food pellets dosed with measured doses of pine bark extract manufactured as above. Preferably, the present composition is administered in a form selected from the group including: a tablet; a capsule; a suppository; an injection; a suspension; a drink; a tonic; a syrup; a powder; an ingredient in solid foods; an ingredient in liquid foods; and combinations thereof, all of which are considered equivalent. Most preferably, the composition is administered orally as a powder mixed with food. The antioxidant composition of the food was as follows (Table 2 below): […]

[2] = test system: rodent; details: rodent trials, dietary supplementation; cited from earlier work
[3] = test system: mice; details: cited from earlier work

Molecule	EC50 ([1]; antioxidant composition of sample) [µg/mL]	RELATIVE ANTIOXIDANT ACTIVITY ([1]; relative to mouse pellet = 1)	effect on mean survivorship and maximum life span [2]	effect on maximum lifespan ([3]; mice fed supplement)	toxicity ([3]; mouse, in vivo)
O=C1O[C@H]([C@@H](O)CO)C(O)=C1O [Vitamin C]	3.79	1.76	Increases in mean survivorship, but not maximum life span	–	–
vitamin E	–	–	Increases in mean survivorship, but not maximum life span	–	–
OCCS [2-mercaptoethanol]	–	–	–	increase in maximum lifespan	toxic
